Results reported in US20220324835A1 (Nurix Therapeutics, Inc., priority 2018, published 2022).

Experiments:
Cbl-b [1] = biological target: T1, Cbl-b (Homo sapiens, UniProt Q13191); assay: Cbl-b inhibition assay (Cbl-b activity assay, FRET, Biological Example 1; 100 mM NaCl, 60 nM Src kinase); type: biochemical; conditions: upper bound stated in text lists; read-out: IC50 values in the Cbl-b inhibition assay of Biological Example 1
Summary of the method: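 Inhibitor activity is measured as reduced terbium-to-fluorescein FRET between streptavidin-terbium on biotinylated Cbl-b and Bodipy-fluorescein ubiquitin carried by an irreversible UbcH5B-Ub conjugate, binding of which depends on Src phosphorylation of Cbl-b.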

T-cell [2] = assay: IL-2 secretion from T-cells co-stimulated with anti-CD3 and anti-CD28 antibody (Biological Example 2); type: cell-based, human; conditions: Homo sapiens, T-cell, primary human total T-cells
Summary of the method: (§1)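 T-cells were stimulated with anti-CD3 antibody alone or with anti-CD28 antibody, in the presence or absence of Cbl-b inhibitor. IL-2 secretion or CD25 surface staining was measured, and values expressed as fold over the uninhibited baseline […].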

T-cell [3] = assay: CD25 cell surface staining on T-cells co-stimulated with anti-CD3 and anti-CD28 antibody (Biological Example 2); type: cell-based, human; conditions: Homo sapiens, T-cell, primary human total T-cells
Summary of the method: as §1

Cbl-b [4] = biological target: T1, Cbl-b; assay: Cbl-b activity assay (Cbl-b inhibition assay), TR-FRET of Cbl-b interaction with UbcH5B-Ub; type: biochemical
Summary of the method: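 UbcH5B (C85K) conjugated to N-terminally Bodipy-Fluorescein-labeled ubiquitin served as the fluorescent partner. After compound preincubation, Src kinase (60 nM) with 1 mM ATP and 5 mM MgCl2 (final) was added for 1.5 h, followed by a further 1 h incubation. Some values were obtained with 50 mM NaCl and 30 nM Src.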

Cbl-b (residues 36-427) = Cbl-b (residues 36-427) (Homo sapiens, UniProt Q13191); assay: Cbl-b binding assay (SPR, Biacore T200); conditions: 20° C., 1:1 binding model
Summary of the method: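 Steps: capture protein on NeutrAvidin surface; inject compound dilutions (8 or 10 points from 100 or 50 μM) 50 s; allow 90-180 s dissociation; regenerate 20 s with 0.3 M NaCl. Runs at 20° C in HEPES pH 7.5/100 mM NaCl/2% DMSO; 1:1 fitting.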

[5] = fold change over baseline, 0.3 μM Cbl-b inhibitor, read-out: IL-2 secretion Anti-CD3/Anti-CD28 stimulation
[6] = fold change over baseline, 1 μM Cbl-b inhibitor, read-out: IL-2 secretion Anti-CD3/Anti-CD28 stimulation
[7] = fold change over baseline, 4 μM Cbl-b inhibitor, read-out: IL-2 secretion Anti-CD3/Anti-CD28 stimulation
[8] = fold change over baseline, 0.3 μM Cbl-b inhibitor, read-out: CD25 staining Anti-CD3/Anti-CD28 stimulation
[9] = fold change over baseline, 1 μM Cbl-b inhibitor, read-out: CD25 staining Anti-CD3/Anti-CD28 stimulation
[10] = fold change over baseline, 4 μM Cbl-b inhibitor, read-out: CD25 staining Anti-CD3/Anti-CD28 stimulation
[11] = assay buffer with 100 mM NaCl, 60 nM Src kinase, read-out: Cbl-b activity IC50
[12] = 0.3 μM compound, baseline = anti-CD3/anti-CD28 stimulated cells without inhibitor, read-out: IL-2 secretion, Anti-CD3/Anti-CD28 stimulation, fold change over baseline
[13] = 1 μM compound, baseline = anti-CD3/anti-CD28 stimulated cells without inhibitor, read-out: IL-2 secretion, Anti-CD3/Anti-CD28 stimulation, fold change over baseline
[14] = 4 μM compound, baseline = anti-CD3/anti-CD28 stimulated cells without inhibitor, read-out: IL-2 secretion, Anti-CD3/Anti-CD28 stimulation, fold change over baseline
[15] = 0.3 μM compound, baseline = anti-CD3/anti-CD28 stimulated cells without inhibitor, read-out: CD25 staining, Anti-CD3/Anti-CD28 stimulation, fold change over baseline
[16] = 1 μM compound, baseline = anti-CD3/anti-CD28 stimulated cells without inhibitor, read-out: CD25 staining, Anti-CD3/Anti-CD28 stimulation, fold change over baseline
[17] = 4 μM compound, baseline = anti-CD3/anti-CD28 stimulated cells without inhibitor, read-out: CD25 staining, Anti-CD3/Anti-CD28 stimulation, fold change over baseline

T1 sequence (Q13191 36-427): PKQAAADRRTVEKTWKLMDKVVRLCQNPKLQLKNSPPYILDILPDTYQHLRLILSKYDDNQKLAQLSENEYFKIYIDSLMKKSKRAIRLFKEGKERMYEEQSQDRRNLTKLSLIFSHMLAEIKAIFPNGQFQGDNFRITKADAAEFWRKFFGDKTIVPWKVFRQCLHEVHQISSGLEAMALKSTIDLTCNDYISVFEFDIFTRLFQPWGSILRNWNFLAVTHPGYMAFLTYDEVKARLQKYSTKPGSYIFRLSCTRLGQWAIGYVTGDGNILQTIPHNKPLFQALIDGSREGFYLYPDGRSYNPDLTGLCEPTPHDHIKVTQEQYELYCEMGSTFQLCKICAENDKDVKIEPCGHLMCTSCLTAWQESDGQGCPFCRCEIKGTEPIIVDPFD
Chain of Cbl-b (residues 36-427) (Q13191 36-427): as above

Row | SMILES | IC50 (Cbl-b [1]) | fold induction at 0.3 µM (T-cell [2]; [5]) | fold induction at 1 µM (T-cell [2]; [6]) | fold induction at 4 µM (T-cell [2]; [7]) | fold induction at 0.3 µM (T-cell [3]; [8]) | fold induction at 1 µM (T-cell [3]; [9]) | fold induction at 4 µM (T-cell [3]; [10]) | IC50 (Cbl-b [4]; [11]) | Kd (Cbl-b (residues 36-427)) | IC50 (Cbl-b [4]; * assay buffer containing 50 mM NaCl instead of 100 mM NaCl and 30 nM Src kinase instead of 60 nM, read-out: Cbl-b activity IC50 (μM)*) | fold induction at 0.3 µM (T-cell [2]; [12]) | fold induction at 1 µM (T-cell [2]; [13]) | fold induction at 4 µM (T-cell [2]; [14]) | fold induction at 0.3 µM (T-cell [3]; [15]) | fold induction at 1 µM (T-cell [3]; [16]) | fold induction at 4 µM (T-cell [3]; [17])
1 | CC(Sc1nncn1C)c1cc(F)cc(N2Cc3c(cccc3C(F)(F)F)C2=O)c1 [Compound 168, 2-[3-fluoro-5-[(1R)-1-[(4-methyl-1,2,4-triazol-3-yl)sulfanyl]ethyl]phenyl]-4-(trifluoromethyl)isoindolin-1-one] | ≤ 500 nM | 1.01 to 2.5 | 1.01 to 2.5 | 1.01 to 2.5 | < 1 | < 1 | 1.01 to 1.3 | 0.301 to 1 µM | 1000 to 3000 nM |  |  |  |  |  |  | 
2 | C[C@H](Sc1nncn1C)c1cccc(N2Cc3c(ccnc3Cl)C2=O)c1 [Compound 167, 4-chloro-2-[3-[(1S)-1-[(4-methyl-1,2,4-triazol-3-yl)sulfanyl]ethyl]phenyl]-3H-pyrrolo[3,4-c]pyridin-1-one] | ≤ 500 nM | 1.01 to 2.5 | < 1 | 2.51 to 5 | 1.51 to 1.75 | 1.01 to 1.3 | > 1.76 | 0.301 to 1 µM | 301 to 1000 nM |  |  |  |  |  |  | 
3 | CNS(=O)(=O)c1cc(C(=O)Nc2cccc([C@H](C)Cc3nncn3C)c2)nc(C(F)(F)F)c1 [Compound 201, (R)-N-(3-(1-(4-methyl-4H-1,2,4-triazol-3-yl)propan-2-yl)phenyl)-4-(N-methylsulfamoyl)-6-(trifluoromethyl)picolinamide] | ≤ 500 nM | 1.01 to 2.5 | 1.01 to 2.5 | < 1 | 1.01 to 1.3 | 1.01 to 1.3 | 1.01 to 1.3 | 0.1 to 0.3 µM | 301 to 1000 nM |  |  |  |  |  |  | 
4 | Cn1cnnc1C[C@](C)(F)c1cccc(N2Cc3c(cccc3C(F)(F)F)C2=O)c1 [Compound 298b, (S)-2-(3-(2-fluoro-1-(4-methyl-4H-1,2,4-triazol-3-yl)propan-2-yl)phenyl)-4-(trifluoromethyl)isoindolin-1-one] | ≤ 500 nM | 1.01 to 2.5 | 1.01 to 2.5 | 1.01 to 2.5 | 1.01 to 1.3 | < 1 | 1.01 to 1.3 | 0.1 to 0.3 µM | 100 to 300 nM |  |  |  |  |  |  | 
5 | C[C@H](Cc1nncn1C)c1cccc(N2Cc3c(ccnc3C3CC3)C2=O)c1 [Compound 257, 4-cyclopropyl-2-[3-[(1R)-1-methyl-2-(4-methyl-1,2,4-triazol-3-yl)ethyl]phenyl]-3H-pyrrolo[3,4-c]pyridin-1-one] | ≤ 500 nM | 1.01 to 2.5 | 1.01 to 2.5 | 1.01 to 2.5 | 1.01 to 1.3 | 1.01 to 1.3 | 1.31 to 1.5 | 0.1 to 0.3 µM | 301 to 1000 nM |  |  |  |  |  |  | 
6 | Cc1ccc(C(=O)Nc2cccc([C@H](C)Sc3nncn3C)c2)nc1C [Compound 35, (S)-5,6-Dimethyl-N-(3-(1-((4-methyl-4H-1,2,4-triazol-3-yl)thio)ethyl)phenyl)picolinamide] | ≤ 1000 nM | 1.01 to 2.5 | 2.51 to 5 | 2.51 to 5 | < 1 | 1.01 to 1.3 | 1.31 to 1.5 | 0.301 to 1 µM | 3000 to 10000 nM | 0.301 to 1 µM |  |  |  |  |  | 
7 | CNCc1ccc(C(=O)Nc2cccc([C@H](C)Cc3nncn3C)c2)nc1C1CC1 [Compound 376, (R)-6-cyclopropyl-N-(3-(1-(4-methyl-4H-1,2,4-triazol-3-yl)propan-2-yl)phenyl)-5-((methylamino)methyl)picolinamide] | ≤ 300 nM |  |  |  |  |  |  | 0.1 to 0.3 µM |  |  | 1.01 to 2.5 | 2.51 to 5 | > 7.5 | 1.01 to 1.3 | 1.31 to 1.5 | 1.51 to 1.75
8 | Cn1cnnc1[C@@H]1C[C@@H]1c1cccc(N2Cc3c(cccc3C(F)(F)F)C2=O)c1 [Compound 282, 2-(3-((1S,2R)-2-(4-methyl-4H-1,2,4-triazol-3-yl)cyclopropyl)phenyl)-4-(trifluoromethyl)isoindolin-1-one] | ≤ 500 nM | < 1 | 1.01 to 2.5 | 2.51 to 5 | > 1.76 | > 1.76 | > 1.76 | 0.301 to 1 µM | 301 to 1000 nM |  |  |  |  |  |  | 
9 | C[C@H](Sc1nncn1C)c1cccc(NC(=O)c2cc(C(=O)N3C[C@H](O)C[C@@H]3C)ccn2)c1 [Compound 151, 4-((2S,4R)-4-hydroxy-2-methylpyrrolidine-1-carbonyl)-N-(3-((S)-1-((4-methyl-4H-1,2,4-triazol-3-yl)thio)ethyl)phenyl)picolinamide] | ≤ 1000 nM | > 7.5 | > 7.5 | > 7.5 | 1.01 to 1.3 | 1.01 to 1.3 | 1.01 to 1.3 | 0.301 to 1 µM | 1000 to 3000 nM |  |  |  |  |  |  | 
10 | Cn1cnnc1C(F)(F)[C@](C)(F)c1cccc(N2Cc3c(cccc3C(F)(F)F)C2=O)c1 [Compound 296a, (R)-2-(3-(1,1,2-trifluoro-1-(4-methyl-4H-1,2,4-triazol-3-yl)propan-2-yl)phenyl)-4-(trifluoromethyl)isoindolin-1-one] | ≤ 500 nM | 1.01 to 2.5 | 1.01 to 2.5 | 2.51 to 5 | 1.01 to 1.3 | 1.01 to 1.3 | 1.01 to 1.3 | 0.1 to 0.3 µM |  |  |  |  |  |  |  | 
11 | Cn1cnnc1[C@@H]1C[C@@H]1c1cccc(N2Cc3c(ccnc3C(F)(F)F)C2=O)c1 [Compound 369, 2-{3-[(1S,2R)-2-(4-methyl-4H-1,2,4-triazol-3-yl)cyclopropyl]phenyl}-4-(trifluoromethyl)-1H,2H,3H-pyrrolo[3,4-c]pyridin-1-one] |  |  |  |  |  |  |  | 0.301 to 1 µM |  |  | 1.01 to 2.5 | 1.01 to 2.5 | 1.01 to 2.5 | 1.01 to 1.3 | 1.01 to 1.3 | 1.01 to 1.3
12 | Cc1cc2c(c(C3CC3)n1)CN(c1cccc([C@H](C)Cc3nncn3C)c1)C2=O [Compound 372, 4-cyclopropyl-6-methyl-2-{3-[(2R)-1-(4-methyl-4H-1,2,4-triazol-3-yl)propan-2-yl]phenyl}-1H,2H,3H-pyrrolo[3,4-c]pyridin-1-one] |  |  |  |  |  |  |  | 0.301 to 1 µM |  |  | 1.01 to 2.5 | 1.01 to 2.5 | 2.51 to 5 | 1.01 to 1.3 | 1.01 to 1.3 | 1.01 to 1.3
13 | C[C@H](Cc1nncn1C)c1cccc(NC(=O)c2cccc(CCO)n2)c1 [Compound 202, 6-(2-hydroxyethyl)-N-[3-[(2R)-1-(4-methyl-4H-1,2,4-triazol-3-yl)propan-2-yl]phenyl]pyridine-2-carboxamide] | ≤ 1000 nM | 1.01 to 2.5 | 1.01 to 2.5 | 2.51 to 5 | 1.01 to 1.3 | 1.01 to 1.3 | 1.31 to 1.5 | 0.301 to 1 µM |  |  |  |  |  |  |  | 
